Experimental data reported in the supplement of paper PMC12513837.
± gives the standard deviation of the averaged measurements.

Compound: CC(=O)N1CCc2c(c(N3CCCc4cc(-c5cnn(C)c5)c(C(F)F)cc43)nn2C2CCC(CN3CCN(c4ccc5c(c4)C(=O)N(C4CCC(=O)NC4=O)C5=O)CC3)CC2)C1 [CBPD-409]
Assay: AUC of viability dose-response curve (relative to vehicle, 8 doses up to 10 µM) (fraction); higher = less sensitive (more viable); extreme values may be limits of the assay
Description: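 PRISM multiplexed pooled barcoded cell line viability screen at the Broad Institute, 887 cancer cell lines treated with CBPD-409 (p300/CBP PROTAC degrader) at 8 concentrations in threefold dilution, top dose 10 µM. The read-out is the area under the dose-response curve of relative viability versus vehicle (n=3). AUC < 0.3 is called strongly sensitive and AUC > 0.8 resistant.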

Test System | AUC of viability dose-response curve
KMBC2_URINARY_TRACT | 0.841
GCIY_STOMACH | 0.542
PANC1_PANCREAS | 0.999
HS939T_SKIN | 0.815
NALM6_HAEMATOPOIETIC_AND_LYMPHOID_TISSUE | 0.331
HPAFII_PANCREAS | 0.919
BT12_SOFT_TISSUE | 0.706
HEC50B_ENDOMETRIUM | 0.851
A427_LUNG | 0.884
DMS273_LUNG | 0.976
BV173_HAEMATOPOIETIC_AND_LYMPHOID_TISSUE | 0.271
SNU489_CENTRAL_NERVOUS_SYSTEM | 1
RERFGC1B_STOMACH | 0.993
SBC5_LUNG | 0.687
RT4_URINARY_TRACT | 0.887
HS683_CENTRAL_NERVOUS_SYSTEM | 1
EFE184_ENDOMETRIUM | 0.79
T24_URINARY_TRACT | 1
NCIH2087_LUNG | 0.834
SNU886_LIVER | 0.853
HSC2_UPPER_AERODIGESTIVE_TRACT | 0.502
IGR39_SKIN | 0.847
U2OS_BONE | 1
SNU466_CENTRAL_NERVOUS_SYSTEM | 0.909

Test System | AUC of viability dose-response curve
HCC4006_LUNG | 1
NCIH82_LUNG | 1
NCIH661_LUNG | 0.567
SW954_CERVIX | 0.702
HS766T_PANCREAS | 0.73
OVISE_OVARY | 1
EFO27_OVARY | 1
RH4_SOFT_TISSUE | 0.308
KKU100_BILIARY_TRACT | 0.994
TM31_CENTRAL_NERVOUS_SYSTEM | 0.826
COV644_OVARY | 0.92
SKNBE2_AUTONOMIC_GANGLIA | 0.539 ± 0.23
LN464_CENTRAL_NERVOUS_SYSTEM | 0.404
RCM1_LARGE_INTESTINE | 1
OSC20_UPPER_AERODIGESTIVE_TRACT | 0.936
HOTHC_THYROID | 0.845
L33_PANCREAS | 0.692
H413_UPPER_AERODIGESTIVE_TRACT | 0.842
TC106_BONE | 1
RDES_BONE | 0.484
U937_HAEMATOPOIETIC_AND_LYMPHOID_TISSUE | 1
SF295_CENTRAL_NERVOUS_SYSTEM | 0.833
HCC1143_BREAST | 0.623
WERIRB1_AUTONOMIC_GANGLIA | 1

Test System | AUC of viability dose-response curve
COLO320_LARGE_INTESTINE | 1
CAL29_URINARY_TRACT | 0.7
VAESBJ_SOFT_TISSUE | 0.8
NCIH2122_LUNG | 0.654
MOLT3_HAEMATOPOIETIC_AND_LYMPHOID_TISSUE | 1
SKNFI_AUTONOMIC_GANGLIA | 0.854
COLO679_SKIN | 0.3
BOKU_CERVIX | 0.581
NCIH358_LUNG | 1
MHHES1_BONE | 0.842 ± 0.2
RMSYM_SOFT_TISSUE | 0.394
ICC12_BILIARY_TRACT | 1
NCIH1651_LUNG | 1
HEC108_ENDOMETRIUM | 0.693
T84_LARGE_INTESTINE | 1
LS513_LARGE_INTESTINE | 0.568
GCT_SOFT_TISSUE | 0.541
NCO2_HAEMATOPOIETIC_AND_LYMPHOID_TISSUE | 0.243
MHHNB11_AUTONOMIC_GANGLIA | 0.488
NCIH322_LUNG | 0.574
HEYA8_OVARY | 1
95T1000_SOFT_TISSUE | 0.44
TF1_HAEMATOPOIETIC_AND_LYMPHOID_TISSUE | 0.757
SUPB15_HAEMATOPOIETIC_AND_LYMPHOID_TISSUE | 0.185

Test System | AUC of viability dose-response curve
SISO_CERVIX | 0.987
PACADD161_PANCREAS | 0.652
RCC10RGB_KIDNEY | 1
PSN1_PANCREAS | 0.639
SW1271_LUNG | 0.564
NCIH1563_LUNG | 0.445
CAMA1_BREAST | 0.746
CAL12T_LUNG | 0.645
NCIH2172_LUNG | 0.62
LN18_CENTRAL_NERVOUS_SYSTEM | 0.607
IGR37_SKIN | 0.229
KKU213_BILIARY_TRACT | 0.767
BFTC909_KIDNEY | 1
SQ1_LUNG | 1
PACADD119_PANCREAS | 0.991
PK8_PANCREAS | 0.556
KCL22_HAEMATOPOIETIC_AND_LYMPHOID_TISSUE | 0.552
NCIH1648_LUNG | 0.448
SNU1105_CENTRAL_NERVOUS_SYSTEM | 0.577
KYSE180_OESOPHAGUS | 0.929
ICC15_BILIARY_TRACT | 0.265
SNU1544_LARGE_INTESTINE | 0.806
MC116_HAEMATOPOIETIC_AND_LYMPHOID_TISSUE | 0.804
NCIH1581_LUNG | 0.347

Test System | AUC of viability dose-response curve
ONCODG1_OVARY | 1
KMS11_HAEMATOPOIETIC_AND_LYMPHOID_TISSUE | 0.497
SNU1041_UPPER_AERODIGESTIVE_TRACT | 0.703
TTC1240_SOFT_TISSUE | 0.187
FADU_UPPER_AERODIGESTIVE_TRACT | 0.844
A549_LUNG | 1
OV56_OVARY | 1
HARA_LUNG | 0.981
NUDHL1_HAEMATOPOIETIC_AND_LYMPHOID_TISSUE | 0.67
SKMEL30_SKIN | 0.703
BICR16_UPPER_AERODIGESTIVE_TRACT | 0.181
TALL1_HAEMATOPOIETIC_AND_LYMPHOID_TISSUE | 0.762
IHH4_THYROID | 0.762
HCC38_BREAST | 0.323
EW8_BONE | 0.946
UPCISCC116_UPPER_AERODIGESTIVE_TRACT | 0.827
1777NRPMET_TESTIS | 0.655
TTC442_SOFT_TISSUE | 0.911
UO31_KIDNEY | 1
PATU8988T_PANCREAS | 0.499
HSC3_UPPER_AERODIGESTIVE_TRACT | 0.936
KHM1B_HAEMATOPOIETIC_AND_LYMPHOID_TISSUE | 0.665
LNZ308_CENTRAL_NERVOUS_SYSTEM | 0.998
HEPG2_LIVER | 1

Test System | AUC of viability dose-response curve
CBAGPN_BONE | 0.79
HUCCT1_BILIARY_TRACT | 0.983
SW156_KIDNEY | 0.884
786O_KIDNEY | 0.84
MFE319_ENDOMETRIUM | 0.353
NCIH2126_LUNG | 1
TTC642_SOFT_TISSUE | 0.541
KYSE520_OESOPHAGUS | 0.797
CHAGOK1_LUNG | 0.748
NCIH727_LUNG | 0.875
PANC1005_PANCREAS | 1
769P_KIDNEY | 0.395
253J_URINARY_TRACT | 1
LS411N_LARGE_INTESTINE | 0.988
BICR22_UPPER_AERODIGESTIVE_TRACT | 0.901
NCIH1793_LUNG | 0.838
RVH421_SKIN | 0.929
LUDLU1_LUNG | 1
C4I_CERVIX | 0.999
C8166_HAEMATOPOIETIC_AND_LYMPHOID_TISSUE | 0.546
S117_THYROID | 0.612
SMSCTR_SOFT_TISSUE | 0.847
GDM1_HAEMATOPOIETIC_AND_LYMPHOID_TISSUE | 0.877
SUDHL4_HAEMATOPOIETIC_AND_LYMPHOID_TISSUE | 0.958
